In patent publication US12503448B2, “Antibacterial and antiparasitic quinoxaline-2,3-diamine derivatives” (University College Cardiff Consultants Limited, priority 2019, dated 2025):
Values after ≈ are worked out from the molar mass of the structure shown. Where two headings read alike, the source gives them in different places.

Assays:
E. coli ATCC 25922 = assay: In vitro antibacterial activity; type: cell-based; conditions: Escherichia coli, ATCC25922
[1] = tested on: F. hepatica newly excysted juveniles (NEJs); assay: Newly excysted juveniles (NEJs) drug screen; type: cell-based, Fasciola hepatica; design: scale not given here; conditions: 10 μM, 72 h; higher score indicates lower worm activity
Procedure: Newly Excysted Juveniles (NEJs) Drug Screen
F. hepatica (Italian strain) metacercariae were obtained from Ridgeway Research, Gloucestershire, UK and stored at 4° C. Newly excysted juveniles (NEJs) from metacercariae were produced based on an optimisation introduced to the excystment method published by Dixon et al. and Wilson et al (Dixon, K. E., The physiology of excystment of the metacercaria of Fasciola hepática L. Parasitology, 1966, 56, 431-456.; Wilson, L. R., Good, R. T., Panaccio, M., Wijffels, G. L., Sandeman, R. M., Spithill, T. W, Fasciola hepatica: Characterization and Cloning of the Major Cathepsin B Protease Secreted by Newly Excysted Juvenile Liver Fluke. Experimental Parasitology 1998, 88, 85-94).
After excystment, NEJs were distributed into a 24 well tissue culture plate at a density of 25 parasites per well containing 1 mL of pre-warmed NEJs culture media. Compounds were added to respective wells and NEJ/compound co-cultures were incubated at 37° C. in an atmosphere containing 5% CO2 for 72 hours at a final concentration of 10 μM.
F. hepatica NEJs (25 per well) were incubated with the three compounds at a concentration of 10 μM (in 0.1% DMSO) and cultured for 72 hrs at 37° C. in an atmosphere containing 5% CO2. Control wells (25 NEJs per well) included those containing 0.1% DMSO (solvent) and RMPI (media) as negative controls or 10 μM Triclabendazole (0.1% DMSO, as positive control, labelled “Tbz” (Comp. 3). After 72 hrs, all NEJs were scored for phenotype and motility metrics. For each treatment, an average of both phenotype and motility score was calculated based on the individual parasite scores (across two independent replicates), wherein a higher score indicates lower worm activity. SD is reported on the bar chart.

S. aureus ATCC 29213 = assay: In vitro antibacterial activity; type: cell-based; conditions: Staphylococcus aureus, ATCC29213
S. mansoni schistosomula = assay: 72 hours schistosomula drug screen; type: cell-based, Schistosoma mansoni; conditions: for EC50: Schistosoma mansoni; for Selectivity Index Schistosomula: HepG2 CC50 over schistosomula EC50
Procedure: Biological Screening 72 Hours Schistosomula Drug Screen […] G. Colley, […], Schistosoma mansoni: simplified method for the production of schistosomules., Exp. Parasitol. 35 (1974) 44-51. Newly transformed schistosomula were prepared for 72 hour high throughput screening (HTS) in 384-well black-sided microtiter plates (Perkin Elmer, MA, USA) as described in M. Nur-e-alam, M. Yousaf, […]. Bari, H. A. Ghabbour, […]. Ho, A. J. […], Neoclerodane Diterpenoids from […], Teucrium […]. Nat. […] The data obtained in this manner is shown in Table 1 in the columns labelled “Phenotype”, “Motility” and “Schistosomula average”.

[2] = tested on: M. smegmatis mc^2 15 ATCC 700084; assay: In vitro antibacterial activity; type: cell-based, Mycobacterium smegmatis; conditions: Mycolicibacterium smegmatis, ATCC700084
MRSA USA 300 = assay: In vitro antibacterial activity; type: cell-based; conditions: Staphylococcus aureus
S. epidermidis NTCT11077 = assay: In vitro antibacterial activity; type: cell-based; conditions: Staphylococcus epidermidis
MRSA EM RSA = assay: In vitro antibacterial activity; type: cell-based; conditions: Staphylococcus aureus
Description: In vitro Determination of Antibacterial Activity
Scientific Reports 8 (1), 2018. Bacterial strains of Enterococcus faecalis—ATCC 29212, NCTC 12201, ATCC 51299; Streptococcus pneumoniae—ATCC 49619, 18778, 21394, 21395; Haemophilus influenza—ATCC 49766, 18391, 17428; Staphylococcus aureus—NCTC 12493, ATCC BAA-077, ATCC 700698, 11051; used for testing the compounds, as previously described in “Clinical laboratory testing and in vitro diagnostics test systems—Susceptibility testing of infectious agents and evaluation of performance of antimicrobial susceptibility devices—Part 1: Reference methods for testing the in vitro activity of antimicrobial agentes against bacteria involved in infectious diseases, ISO/FDIS 20776-1:2006(E). All the procedures were carried out in a biosafety containment level 2.

MRSA ATCC 33591 = assay: In vitro antibacterial activity; type: cell-based; conditions: Staphylococcus aureus
B. cereus = assay: In vitro antibacterial activity; type: cell-based; conditions: Bacillus cereus
[3] = tested on: Pseudomonas aeruginosa ATCC 27853; assay: In vitro antibacterial activity; type: cell-based; conditions: ATCC27853
S. mansoni adult worms = assay: Adult worm drug screen (WHO scoring, WormassayGP2); type: cell-based, Schistosoma mansoni; conditions: for Selectivity Index Adult: HepG2 CC50 over adult worm EC50; for EC50: Schistosoma mansoni, adult worms
Description: Mice (MF-1 mice, Harlan, UK), infected 7 weeks previously with 180 cercaria, were euthanised with an intraperitoneal injection of phenobarbital/heparin solution. Adult worms were recovered by perfusion of the portal system and subjected to drug screening as previously described in Padalino G, Ferla S, Brancale A, Chalmers I W, Hoffmann K F. Int J Parasitol Drugs Drug Resist. 2018 December; 8(3):559-570; in Whiteland H L, Chakroborty A, Forde-Thomas J E, Crusco A, Cookson A, Hollinshead J, Fenn C A, Bartholomew B, Holdsworth P A, Fisher M, Nash R J, Hoffmann K F. Int J Parasitol Drugs Drug Resist. 2018 December; 8(3):465-474; and in Crusco A, Bordoni C, Chakroborty A, Whatley K C L, Whiteland H, Westwell A D, Hoffmann K F. Eur J Med Chem. 2018 May 25; 152:87-100. The data obtained in this manner is shown in Table 1 in the columns labelled “Adult worm”.
Regarding the quantification of drug treatment on adult worms (e.g. decreased activity, paralysis or sluggishness), two different approaches were used, as described below. Where egg deposition was noticed, eggs were removed and counted using a Sedgewick rafter slide.
Adult worms were scored using the standardized microscopic WHO-TDR scoring system previously described by Ramirez, B., Bickle, Q., Yousif, F., Fakorede, F., Mouries, M.-A., Nwaka, S. in Schistosomes: Challenges in compound screening, Expert Opin Drug Discov. 2007 October; 2(s1): S53-61. This scoring system (0-4) identifies changes in worm movement and is defined according to the following scoring matrix: 0=no movement, 1=no movement with visible gut peristalsis, 2=minimal movement (occasional movement from anterior or posterior end of the worm), 3=slow continuous movement and 4=normal movement.
A digital image processing-based system was also used to assess parasite motility after drug treatment and is a modification of methods previously described by Marcellino C., Gut, J., Lim, K., Singh R., McKerrow, L. and Sakanari, J. WormAssay: a novel computer application for whole-plate motion-based screening of macroscopic parasites. PLoS Negl Trop Dis. 2012 January:6(1):e1494. This allowed for objective verification of the WHO method described above. The data obtained with this quantification method is shown in Table 1 in the columns labelled “Adult worm”.

[4] = Semi thermodynamic solubility; conditions: thermodynamic from solid
[5] = Mouse pharmacokinetics, oral cassette dosing; conditions: male, C57/BL6, mouse, plasma, po, 2.5 mg/kg
Procedure: Non-compartmental mouse pharmacokinetics (Male C57/BL6 Mouse, Fasted; 3 mice per group) were determined after oral administration of a nominal dose of 2.5 mg/kg of these formulations in cassettes (5 compounds/group) according to the protocols employed by WuXi (https://www.wuxiapptec.com; the CRO that conducted these studies).

[6] = Metabolic stability in mouse liver microsomes; conditions: liver microsomes
[7] = E. coli ATCC 25922, read-out: MIC90
[8] = schistosomula, 72 hour culture, read-out: EC50 Motility
[9] = schistosomula, 72 hour culture, read-out: EC50 Phenotype
[10] = M. smegmatis mc^2 15 ATCC 700084, read-out: MIC90
[11] = average of phenotype and motility, read-out: EC50 Schistosomula average

| SMILES | Motility (M) Mean score [1] | Phenotype (P) Mean score [1] | EC50 (S. mansoni schistosomula; [8]) [µM] | EC50 (S. mansoni schistosomula; [9]) [µM] | MIC90 (E. coli ATCC 25922) [µg/mL] | MIC90 (S. aureus ATCC 29213) [µg/mL] | MIC90 (S. epidermidis NTCT11077; NTCT11077) [µg/mL] | MIC90 (B. cereus) [µg/mL] | MIC90 [2] [µg/mL] | MIC90 ([3]; Pseudomonas aeruginosa) [µg/mL] | Selectivity Index Adult (S. mansoni adult worms) | EC50 (S. mansoni adult worms) [µM] | Selectivity Index Schistosomula (S. mansoni schistosomula) | EC50 (S. mansoni schistosomula; [11]) [µM] | also measured |
| --- | --- | --- | --- | --- | --- | --- | --- | --- | --- | --- | --- | --- | --- | --- | --- |
| O=[N+]([O-])c1ccc2nc(NCCc3ccccc3)c(NCCc3ccccc3)nc2c1 [Compound 14, 6-nitro-N^2, N^3-diphenethylquinoxaline-2,3-diamine] | 4.00 | 4.27 | 1.47 | 2.2 |  |  |  |  |  |  |  |  |  |  | MIC90 (E. coli ATCC 25922; [7]): > 125 µg/mL; MIC90 (S. aureus ATCC 29213; S. aureus ATCC 29213, read-out: MIC90): > 125 µg/mL; MIC90 [2, 10]: 31.2 µg/mL (≈ 75.6 µM) |
| Clc1ccc(Nc2nc3ccc(N4CCCC4)cc3nc2Nc2ccc(Cl)c(Cl)c2)cc1Cl [Compound 16, N^2, N^3-bis(3,4-dichlorophenyl)-6-(pyrrolidin-1-yl)quinoxaline-2,3-diamine] | 2.84 | 2.95 | > 10 | > 10 | > 125 | 15.6 (≈ 30.1 µM) | > 125 | > 125 | > 125 | > 125 |  |  |  |  | MIC90 (MRSA USA 300): 62.5 µg/mL (≈ 120 µM); MIC90 (MRSA EM RSA): 62.5 µg/mL (≈ 120 µM); MIC90 (MRSA ATCC 33591): 31.2 µg/mL (≈ 60.2 µM) |
| CC(=O)Nc1ccc2nc(Nc3ccc(Cl)c(Cl)c3)c(Nc3ccc(Cl)c(Cl)c3)nc2c1 [Compound 17, N-(2,3-bis((3,4-dichlorophenyl)amino)quinoxalin-6-yl)acetamide] |  |  | 2.09 | 2.6 | > 125 | 62.5 (≈ 123 µM) | < 62.5 | < 62.5 | > 125 | > 125 | 12 | 0.7 | 4 | 2.35 |  |
| CCCCCC(=O)Nc1ccc2nc(Nc3ccc(Cl)c(Cl)c3)c(Nc3ccc(Cl)c(Cl)c3)nc2c1 [Compound 18, N-(2,3-bis((3,4-dichlorophenyl)amino)quinoxalin-6-yl)hexanamide] | 4.05 | 4.09 | 1.8 | 1.02 | > 125 | 62.5 (≈ 111 µM) | > 125 | 125 (≈ 222 µM) | > 125 | > 125 | 203 | 0.32 | 46 |  | solubility thermodynamic [4]: 15.5 µM (≈ 8.73 µg/mL); AUC(0-t) [5]: 68.2 ng·h/mL; Cmax [5]: 16.4 ng/mL; MRT last [5]: 3.86 h; Tmax [5]: 4 h; half-life at 1 μM [6]: 0.618 h; microsomal CLint at 1 μM [6]: 37.4 µL/min/mg |
| O=[N+]([O-])c1ccc2nc(NCc3ccccc3)c(NCc3ccccc3)nc2c1 [Compound 13, N^2, N^3-dibenzyl-6-nitroquinoxaline-2,3-diamine] | 3.14 | 3.14 | 2.64 | 3.19 | > 125 | > 125 |  |  | > 125 |  |  |  | 4 | 2.92 |  |
| Nc1ccc2nc(Nc3ccc(Cl)c(Cl)c3)c(Nc3ccc(Cl)c(Cl)c3)nc2c1 [Compound 15, N^2, N^3-bis(3,4-dichlorophenyl)quinoxaline-2,3,6-triamine] | 4.86 | 5.09 | 3.25 | 3.51 |  |  |  |  |  |  |  |  | 7 |  |  |
| COC(=O)C1=C(C)NC(C)=C(C(=O)OCCN(C)Cc2ccccc2)C1c1cccc([N+](=O)[O-])c1 (stereo not shown) [Nicardipine, reference compound] |  |  |  |  |  |  |  |  |  |  |  |  |  |  | solubility thermodynamic [4]: 35.4 µM (≈ 17 µg/mL) |
| CSc1nc2cc(Cl)c(Oc3cccc(Cl)c3Cl)cc2[nH]1 [Comp. 3, triclabendazole, reference compound] | 4.72 | 4.72 |  |  |  |  |  |  |  |  |  |  |  |  |  |
| O=[N+]([O-])c1ccc2nc(Nc3cccc(C(F)(F)F)c3)c(Nc3cccc(C(F)(F)F)c3)nc2c1 [Compound 10, 6-nitro-N^2, N^3-bis(3-(trifluoromethyl)phenyl)quinoxaline-2,3-diamine] | 2.71 | 2.76 | 0.57 |  |  | 7.81 (≈ 15.8 µM) |  |  |  |  | 836 | 0.007 | 12 | 0.48 | MIC90 (E. coli ATCC 25922; [7]): > 125 µg/mL; MIC90 (MRSA USA 300): > 125 µg/mL; MIC90 (S. epidermidis NTCT11077; S. epidermidis NTCT11077, read-out: MIC90): > 125 µg/mL; MIC90 (MRSA EM RSA): > 125 µg/mL; MIC90 (MRSA ATCC 33591): > 125 µg/mL; MIC90 (B. cereus; B. cereus, read-out: MIC90): > 125 µg/mL; MIC90 [2, 10]: > 125 µg/mL; MIC90 ([3]; Pseudomonas aeruginosa ATCC 27853, read-out: MIC90): > 125 µg/mL |
